How the values were obtained:
Mononuclear human cells = assay: In vitro activation of mononuclear human cells by antibiotics: IL-1RA and sTNFrI production; type: cell-based; conditions: 0.06 mg/ml, activation for 2 hours
TNF-α and IL-1β = assay: Serum TNF and IL-1 in Dengue infected mice (Example 4); type: in vivo, BALB/c mice; conditions: for level of the cytokines in the serum versus control A2 group: 20 mg/kg twice per day from day -3 until day 8
Dengue virus type 2 = assay: Dengue virus infection treated with tetracycline compounds (Example 4): mortality; type: in vivo, BALB/c mice; conditions: for % (survival): 20 mice, 20 mg/kg
IL-1RA and sTNFrl = IL-1RA and sTNFrl in human donor serum after oral antibiotic stimulation; type: in vivo
[1] = day 0, 20 mg/kg intramuscularly twice per day from day -3 until day 8
[2] = day 1, 20 mg/kg intramuscularly twice per day from day -3 until day 8
[3] = day 3, 20 mg/kg intramuscularly twice per day from day -3 until day 8
[4] = day 5, 20 mg/kg intramuscularly twice per day from day -3 until day 8
[5] = day 6, 20 mg/kg intramuscularly twice per day from day -3 until day 8
[6] = day 7, 20 mg/kg intramuscularly twice per day from day -3 until day 8
[7] = day 8, 20 mg/kg intramuscularly twice per day from day -3 until day 8
[8] = day 12, 20 mg/kg intramuscularly twice per day from day -3 until day 8
[9] = day -1, 20 mg/kg intramuscularly twice per day from day -3 until day 8
[10] = 20 mg/kg intramuscularly twice per day from day -3 until day 8
[11] = 20 mg/kg intramuscularly twice per day from day -3 until day 8, listed as terramycine
[12] = day 0, 20 mg/kg orally twice per day from day -3 until day 8
[13] = day 1, 20 mg/kg orally twice per day from day -3 until day 8
[14] = day 3, 20 mg/kg orally twice per day from day -3 until day 8
[15] = day 5, 20 mg/kg orally twice per day from day -3 until day 8
[16] = day 6, 20 mg/kg orally twice per day from day -3 until day 8
[17] = day 7, 20 mg/kg orally twice per day from day -3 until day 8
[18] = day 8, 20 mg/kg orally twice per day from day -3 until day 8
[19] = day 12, 20 mg/kg orally twice per day from day -3 until day 8
[20] = day -1, 20 mg/kg orally twice per day from day -3 until day 8
[21] = 150 mg orally twice a day, blood taken on the second and third day after beginning
[22] = after stimulation, 2 persons, on the 24th hour
[23] = 20 mg/kg orally twice per day from day -3 until day 8
[24] = 20 mg/kg orally twice per day from day -3 until day 8, listed as vibromycine

In the case of `CN(C)[C@@H]1C(O)=C(C(N)=O)C(=O)[C@@]2(O)C(O)=C3C(=O)c4c(O)cccc4[C@@](C)(O)[C@H]3[C@H](O)[C@@H]12` [Terramycine], the IL-1RA (Mononuclear human cells; 0 hours) was 28 + 1.6 pg/ml, the sTNFrI (Mononuclear human cells; 0 hours) was 18 + 1.4 pg/ml and the IL-1RA (Mononuclear human cells; 3 hours) was 93 + 6.2 pg/ml. The sTNFrI (Mononuclear human cells; 3 hours) was 313 + 10.4 pg/ml, the IL-1RA (Mononuclear human cells; 6 hours) was 220 + 9.4 pg/ml and the sTNFrI (Mononuclear human cells; 6 hours) was 224 + 9.2 pg/ml. The IL-1RA (Mononuclear human cells; 24 hours) was 185 + 8.6 pg/ml, the sTNFrI (Mononuclear human cells; 24 hours) was 264 + 9.6 pg/ml and the “level of the cytokines in the serum versus control A2 group” value (TNF-α and IL-1β) was “statistically lower”. The “increase of the concentration of IL-1” value (TNF-α and IL-1β; by day 3 of the disease, stayed until day 7, 20 mg/kg intramuscularly twice per day) was 16 fold, the “increase of the concentration of TNF” value (TNF-α and IL-1β; by day 6 of the disease, 20 mg/kg intramuscularly twice per day) was 2 fold and the IL-1 (TNF-α and IL-1β; [1]) was 7.0 pg/mL. It also gave a TNF (TNF-α and IL-1β; [1]) of 17.0 pg/mL, an IL-1 (TNF-α and IL-1β; [2]) of 21.8 pg/mL and a TNF (TNF-α and IL-1β; [2]) of 15.2 pg/mL. It also gave an IL-1 (TNF-α and IL-1β; [3]) of 112.0 pg/mL, a TNF (TNF-α and IL-1β; [3]) of 25.6 pg/mL and an IL-1 (TNF-α and IL-1β; [4]) of 84.0 pg/mL. For the same compound, the TNF (TNF-α and IL-1β; [4]) was 26.0 pg/mL, the IL-1 (TNF-α and IL-1β; [5]) was 80.0 pg/mL and the TNF (TNF-α and IL-1β; [5]) was 36.2 pg/mL. It also gave an IL-1 (TNF-α and IL-1β; [6]) of 76.0 pg/mL, a TNF (TNF-α and IL-1β; [6]) of 28.0 pg/mL and an IL-1 (TNF-α and IL-1β; [7]) of 42.0 pg/mL. The TNF (TNF-α and IL-1β; [7]) was 20.0 pg/mL, the IL-1 (TNF-α and IL-1β; [8]) was 16.0 pg/mL and the TNF (TNF-α and IL-1β; [8]) was 18.0 pg/mL. The IL-1 (TNF-α and IL-1β; [9]) was 7.2 pg/mL, the TNF (TNF-α and IL-1β; [9]) was 18.8 pg/mL and the m.t.d. (Dengue virus type 2; [10]) was “m.t.d. = 6.53 days”. The m.t.d. (Dengue virus type 2; [11]) was 6.53 days, the “% (survival)” value (Dengue virus type 2; [10]) was “% (survival) 15” and the “% (survival)” value (Dengue virus type 2; [11]) was 15%. For the same compound, the Survival/total amount (Dengue virus type 2; [1]) was 20/20, the Survival/total amount (Dengue virus type 2; [2]) was 20/20 and the Survival/total amount (Dengue virus type 2; [3]) was 20/20. The Survival/total amount (Dengue virus type 2; [4]) was 19/20, the Survival/total amount (Dengue virus type 2; [5]) was 11/20 and the Survival/total amount (Dengue virus type 2; [6]) was 6/20. For the same compound, the Survival/total amount (Dengue virus type 2; [7]) was 3/20, the Survival/total amount (Dengue virus type 2; [8]) was 3/20 and the Survival/total amount (Dengue virus type 2; [9]) was 20/20.
With `CC1c2cccc(O)c2C(=O)C2=C(O)C3(O)C(=O)C(C(N)=O)=C(O)C(N(C)C)C3C(O)C21` (stereo not shown) [Vybromycine] the “increase of the concentration of TNF” value (TNF-α and IL-1β; 20 mg/kg orally twice per day) was 3 fold, the “level of the cytokines in the serum versus control A2 group” value (TNF-α and IL-1β) was “statistically lower” and the “increase of the concentration of IL-1” value (TNF-α and IL-1β; by day 6 of the infection, 20 mg/kg orally twice per day) was 12 fold. For the same compound, the IL-1 (TNF-α and IL-1β; [12]) was 7.0 pg/mL, the TNF (TNF-α and IL-1β; [12]) was 18.8 pg/mL and the IL-1 (TNF-α and IL-1β; [13]) was 11.6 pg/mL. The TNF (TNF-α and IL-1β; [13]) was 12.6 pg/mL, the IL-1 (TNF-α and IL-1β; [14]) was 60.0 pg/mL and the TNF (TNF-α and IL-1β; [14]) was 10.8 pg/mL. For the same compound, the IL-1 (TNF-α and IL-1β; [15]) was 62.0 pg/mL, the TNF (TNF-α and IL-1β; [15]) was 16.0 pg/mL and the IL-1 (TNF-α and IL-1β; [16]) was 84.4 pg/mL. The TNF (TNF-α and IL-1β; [16]) was 34.0 pg/mL, the IL-1 (TNF-α and IL-1β; [17]) was 64.0 pg/mL and the TNF (TNF-α and IL-1β; [17]) was 30.6 pg/mL. For the same compound, the IL-1 (TNF-α and IL-1β; [18]) was 30.0 pg/mL, the TNF (TNF-α and IL-1β; [18]) was 26.0 pg/mL and the IL-1 (TNF-α and IL-1β; [19]) was 17.8 pg/mL. For the same compound, the TNF (TNF-α and IL-1β; [19]) was 22.2 pg/mL, the IL-1 (TNF-α and IL-1β; [20]) was 7.0 pg/mL and the TNF (TNF-α and IL-1β; [20]) was 20.4 pg/mL. For the same compound, the “concentration in the human serum of IL-1RA” value (IL-1RA and sTNFrl; [21]) was 184 pg/mL, the “concentration in the human serum of sTNFrl” value (IL-1RA and sTNFrl; [21]) was 950 pg/mL and the “IL-1RA in the donor serum” value (IL-1RA and sTNFrl; [22]) was 126.8 ± 6.8 pg/mL. For the same compound, the “sTNFrl in the donor serum” value (IL-1RA and sTNFrl; [22]) was 970 ± 28.6 pg/mL, the “IL-1RA in the donor serum” value (IL-1RA and sTNFrl; before the stimulation) was 20 ± 2.2 pg/mL and the “sTNFrl in the donor serum” value (IL-1RA and sTNFrl; before the stimulation) was 22 ± 3.4 pg/mL. The m.t.d. (Dengue virus type 2; [23]) was “m.t.d. = 6.7 days”, the m.t.d. (Dengue virus type 2; [24]) was 6.7 days and the “% (survival)” value (Dengue virus type 2; [23]) was “% (survival) 20”. The “% (survival)” value (Dengue virus type 2; [24]) was 20%, the Survival/total amount (Dengue virus type 2; [12]) was 20/20 and the Survival/total amount (Dengue virus type 2; [13]) was 20/20. The Survival/total amount (Dengue virus type 2; [14]) was 20/20, the Survival/total amount (Dengue virus type 2; [15]) was 19/20 and the Survival/total amount (Dengue virus type 2; [16]) was 15/20. The Survival/total amount (Dengue virus type 2; [17]) was 5/20, the Survival/total amount (Dengue virus type 2; [18]) was 4/20 and the Survival/total amount (Dengue virus type 2; [19]) was 4/20. The Survival/total amount (Dengue virus type 2; [20]) was 20/20.

Reference: patent US20030092684A1, “Compositions and methods for treating hemorrhagic virus infections and other disorders” (priority 1999, published 2003)
